Consider ten compounds from US20260026499A1 (priority 2022, published 2026).

One may read the EC50 as the concentration that produces a half-maximal response.

Common to all, as to assay type: cell-based
Experiment [1] deals with Fusarium graminearum. The experiment is described as follows: microbe, parasite or virus in culture. Particulars: for EC50: Fusarium graminearum, 72 h; for ATI: ZJS178 as standard reagent, B = pydiflumetofen.
For experiment [2], the system named is tebuconazole-sensitive Fusarium graminearum (TS). Nature of the experiment: microbe, parasite or virus in culture. The conditions noted are these: for EC50: Fusarium graminearum, 72 h; for Actual Toxicity Index (ATI): ZJS178 as standard reagent, TS strain.
The test system of experiment [3] is Fusarium oxysporum. Nature of the experiment: microbe, parasite or virus in culture. The conditions noted are these: for EC50: Fusarium oxysporum, 72 h.
The test system of experiment [4] is F. oxysporum f.sp. lycopersici. Particulars: B = azoxystrobin; for ATI: ZJS178 as standard reagent; for EC50: mycelial growth, PDA with 50 μg/mL SHAM, 25° C., 3 days. The procedure: Test object: F. oxysporum f.sp. lycopersici isolated from diseased tomatoes from the field. The tested strains were identified by morphology and pathogenicity, and then stored in the laboratory for future use.
(§1) The above-mentioned F. oxysporum f.sp. lycopersici was inoculated on a PDA medium, and 50 μg/mL salicylhydroxamic acid (SHAM) was added to the culture medium to inhibit the […] bypass respiration.

Experiment [5] concerns Fusarium fujikuroi. Particulars: B = fludioxonil; for EC50: Fusarium fujikuroi, 72 h, mycelial growth, PDA, 25° C., 3 days; for ATI: ZJS178 as standard reagent. From the text:
Test object: Fusarium fujikuroi preserved in a culture room of the laboratory.
(§2) The bioassay method was referred to the description in Example 9.

The test system of experiment [6] is Fusarium oxysporum. Particulars: B = fludioxonil; for EC50: Fusarium oxysporum, 72 h, mycelial growth, PDA, 25° C., 3 days; for ATI: ZJS178 as standard reagent.
Description: Test object: Fusarium oxysporum preserved in the laboratory.
as §2

Experiment [7] deals with Fusarium fujikuroi. The experiment is described as follows: microbe, parasite or virus in culture. Particulars: for EC50: Fusarium fujikuroi, 72 h.
Experiment [8] concerns Fusarium graminearum. Nature of the experiment: microbe, parasite or virus in culture. Particulars: for ATI: B = prochloraz; for EC50: Fusarium graminearum.
Experiment [9] relates to Fusarium oxysporum. Nature of the experiment: microbe, parasite or virus in culture.
The next experiment has as its system Fusarium moniliforme. Particulars: B = pyraclostrobin; for EC50: Fusarium verticillioides, mycelial growth, method of Example 17; for ATI: ZJS178 as standard reagent. The procedure:
as §1
Test object: Fusarium moniliforme preserved in a culture room of the laboratory. The bioassay method was referred to the description in Example 17.

The test system of experiment [10] is F. oxysporum f.sp. niveum. The conditions noted are these: for EC50: Fusarium oxysporum, 72 h.
For experiment [11], the system named is metconazole-sensitive Fusarium fujikuroi(MS). Nature of the experiment: microbe, parasite or virus in culture.
Experiment [12] deals with metconazole-resistance Fusarium fujikuroi(MR). The experiment is described as follows: microbe, parasite or virus in culture.

≈ marks a conversion by molar mass, not a printed value. Like-named read-outs stand apart in the source and are kept apart here.

As to `CON(C(=O)c1cn(C)nc1C(F)F)C(C)Cc1c(Cl)cc(Cl)cc1Cl` (racemic) [Pydiflumetofen, 3-(difluoromethyl)-N-methoxy-1-methyl-N-[(RS)-1-methyl-2-(2,4,6-trichlorophenyl)ethyl]pyrazole-4-carboxamide, reference compound], in the experiment with Fusarium graminearum [1], the EC50 is 0.319 µg/mL (≈ 0.748 µM) and the ATI was 11.88.

Turning to `CC(C)(C)C(O)(CCc1ccc(Cl)cc1)Cn1cncn1` (racemic) [Tebuconazole (B), (RS)-1-p-chlorophenyl-4,4-dimethyl-3-(1H-1,2,4-triazol-1-ylmethyl)pentan-3-ol, reference compound], in [2], the EC50 was 0.175 µg/mL (≈ 0.567 µM) and the “Actual Toxicity Index (ATI)” value worked out at 22.05. In the experiment on Fusarium oxysporum [3], the ATI was 14.46 and the EC50 came to 0.276 µg/mL (≈ 0.896 µM).

As to `CO/C=C(/C(=O)OC)c1ccccc1Oc1cc(Oc2ccccc2C#N)ncn1` [Azoxystrobin (B), (E)-methyl 2-{2-[6-(2-cyanophenoxy)pyrimidin-4-yloxy]phenyl}-3-strobilurin, reference compound], in [4], the ATI is recorded as 5.59 and the EC50 is 0.8247 µg/mL.

Turning to `N#Cc1c[nH]cc1-c1cccc2c1OC(F)(F)O2` [Fludioxonil (B), 4-(2,2-difluoro-1,3-benzodioxol-4-yl) pyrrole-3-carbonitrile, reference compound], the EC50 with Fusarium fujikuroi [5] came out at 0.0529 µg/mL (≈ 0.213 µM); in the experiment with Fusarium oxysporum [6] it was 0.0683 µg/mL (≈ 0.275 µM). For the same compound, the ATI in the experiment with Fusarium fujikuroi [5] was found to be 90.93; with Fusarium oxysporum [6], 128.55.

In the experiment on Fusarium fujikuroi [7], `Cc1nn(C)c(F)c1C(=O)Nc1ccccc1C(C)CC(C)C` (centres unmarked) [Penflufen (B), 5-fluoro-1,3-dimethyl-N-[2-(4-methylpentan-2-yl)phenyl]-1H-pyrazole-4-carboxamide, reference compound] displayed an ATI of 22.85 and an EC50 of 0.294 µg/mL (≈ 0.925 µM).

On to `CCCN(CCOc1c(Cl)cc(Cl)cc1Cl)C(=O)n1ccnc1` [Prochloraz (B), N-propyl-N-[2-(2,4,6-trichlorophenoxy)ethyl]-imidazole-1-carboxamide, reference compound], for which, in the experiment on Fusarium graminearum [8], the ATI was found to be 11.88 and the response was half-maximal at 0.319 µg/mL (≈ 0.847 µM) (EC50).

On to `CCCN(CCOc1c(Cl)cc(Cl)cc1Cl)C(=O)n1ccnc1.CCCN(CCOc1c(Cl)cc(Cl)cc1Cl)C(=O)n1ccnc1.CCCN(CCOc1c(Cl)cc(Cl)cc1Cl)C(=O)n1ccnc1.CCCN(CCOc1c(Cl)cc(Cl)cc1Cl)C(=O)n1ccnc1.[Cl][Mn][Cl]` [Prochloraz-manganese chloride, reference compound], for which, in the experiment with Fusarium oxysporum [9], the ATI is reported as 14.46 and the EC50 came to 0.2758 µg/mL.

For the compound `COC(=O)N(OC)c1ccccc1COc1ccn(-c2ccc(Cl)cc2)n1` [Pyraclostrobin (B), methyl N-[2-[[1-(4-chlorophenyl)pyrazol-3-yl]oxymethyl]phenyl]-N-methoxycarbamate, reference compound], in the experiment on Fusarium moniliforme, the EC50 worked out at 4.99 µg/mL (≈ 12.9 µM) and the ATI came out at 13.61.

As for `COC(=O)NC(=S)Nc1ccccc1NC(=S)NC(=O)OC` [Thiophanate-, 1,2-bis (3-carbomethoxy-2-thioureido)benzene, reference compound], the EC50 in experiment [10] stood at 0.222 µg/mL (≈ 0.65 µM).

Consider `CCOC(=O)/C(C#N)=C(\N)c1ccc(N(C)CC)cc1` [ZJS178 (A), ethyl 2-cyano-3-amino-3-[4-(N-ethyl-N-methylamino)phenyl]acrylate], for which the EC50 was 0.0385 µg/mL (≈ 0.141 µM) in experiment [2]; 0.069 µg/mL (≈ 0.252 µM) in experiment [11] (Fusarium fujikuroi, 72 h); 0.0621 µg/mL (≈ 0.227 µM) in experiment [12] (Fusarium fujikuroi, 72 h); 0.0399 µg/mL (≈ 0.146 µM) in the experiment on Fusarium oxysporum [3]; 0.0379 µg/mL (≈ 0.139 µM) in the experiment with Fusarium graminearum [1]; 0.0671 µg/mL (≈ 0.245 µM) with Fusarium fujikuroi [7]. The EC50 came to 0.0481 µg/mL (≈ 0.176 µM) with Fusarium fujikuroi [5]; 0.0878 µg/mL (≈ 0.321 µM) with Fusarium oxysporum [6]; 0.0569 µg/mL (≈ 0.208 µM) in experiment [10]; 0.0379 µg/mL (≈ 0.139 µM) in the experiment with Fusarium graminearum [8]; 0.0399 µg/mL (≈ 0.146 µM) in the experiment with Fusarium oxysporum [9] (Fusarium oxysporum); 0.0461 µg/mL in experiment [4] (Fusarium oxysporum, 72 h, read-out: EC50). This compound yielded an EC50 in the experiment on Fusarium moniliforme of 0.678 µg/mL (≈ 2.48 µM). Also, the “Actual Toxicity Index (ATI)” value in [2] stood at 100.00. Besides, the ATI in [11] was 100.00; in experiment [12] (ZJS178 as standard reagent, MR strain), 100.00; in the experiment with Fusarium oxysporum [3], 100.00; in the experiment on Fusarium graminearum [1], 100.00; in the experiment with Fusarium fujikuroi [7], 100.00; in the experiment with Fusarium fujikuroi [5], 100.00. Moreover, the ATI (in the experiment with Fusarium oxysporum [6]; in the experiment on Fusarium graminearum [8]; in the experiment with Fusarium oxysporum [9]; in [4]; with Fusarium moniliforme) was 100.00 in each case. Besides, in [10] (ZJS178 as standard reagent, B = thiophanate-methyl), the “Actual Toxicity Index” value is recorded as 100.00.
